Data on 82 compounds can be found in PMC12040169 (PLOS Biology, 2025).

The data set can be described thus: in vitro. The settings on record: human, hela cells, % viability.
For `CC(=O)NCCC1CCN(c2nc(C(C)(C)C)nc3c2cnn3C)CC1` [CBK307364], the viability at 28.5 h, 10 µM is 96.7%. The result for `CC(=O)c1cc(CN2CCCOC(Cn3cccn3)C2)cs1` (stereo not shown) [CBK307365] reads 84.3%. The result for `COCCn1cnnc1C(C)NC(=O)c1nc2ccccc2[nH]1` (stereo not shown) [CBK307366] reads 101%. The result for `O=C(NCCF)c1cn2cc(-c3cccs3)n(CC3CC3)c(=O)c2n1` [CBK307367] reads 96.8%.

Take `CN(CCO)C(=O)c1cn2cc(-c3cccs3)n(CC3CC3)c(=O)c2n1` [CBK307370]: the viability at 28.5 h, 10 µM stood at 92.8%. Regarding `Cc1ccsc1CCNC(=O)C1(Oc2cccnc2C)CCNCC1` [CBK307374], the viability at 28.5 h, 10 µM was 84.2%. The result for `O=C(CSc1nc(-c2cccs2)cc(C(F)(F)F)n1)NN1CCOCC1` [CBK307375] reads 98.1%. In the case of `Cc1ccn2cc(CNC(=O)N(C)CCc3scnc3C)nc2c1` [CBK307379] it was 87.5%.

As for `CC(C)(CN1CCCC1)NC(=O)N1CCN(Cc2cccc(O)c2)CC1` [CBK307380], the viability at 28.5 h, 10 µM is 86.6%.

With `CCc1nc(-c2ccc(N(C)C)nc2)nn1C` [CBK307381], the viability at 28.5 h, 10 µM turned out to be 106%. The result for `Cc1nc(-c2cccc(OC(F)F)c2)n(C2CCN(C)CC2)n1` [CBK307382] reads 97.1%.

Consider `Cc1ccc(C(CCO)Nc2ncnc3c2c(C)nn3C)cc1` (stereo not shown) [CBK307387], for which the viability at 28.5 h, 10 µM came out at 82.1%.

In the case of `Cc1nnc(SCC(=O)N2CCN(c3ccc(Cl)cc3)CC2)s1` [CBK307389], the viability at 28.5 h, 10 µM came out at 87.5%. As to `Cc1cc2[nH]cc(C(=O)N3CCCC3c3ccco3)c(=O)n2n1` (stereo not shown) [CBK307390], the viability at 28.5 h, 10 µM is 82.9%. In the case of `Cc1nnc2ncc(-c3ccccc3C(=O)N(C(C)C)C(C)C)cn12` [CBK307393] it was 94.7%; in that of `Cc1cc(C)n(CCC(=O)NCC(c2ccccn2)N2CCOCC2)n1` (stereo not shown) [CBK307396], 105%.

Turning to `CCN1CC2(CCN(Cc3cccc(-c4ccccn4)c3)CC2)CC1=O` [CBK307399], the viability at 28.5 h, 10 µM amounted to 107%.

On to `CCn1c(CC2CCN(C(=O)CCn3nnnc3C)CC2)nn(C)c1=O` [CBK307400], for which the viability at 28.5 h, 10 µM was determined as 104%. In the case of `CCC(C(=O)Nc1nccs1)N(C)Cc1c(C)nn(C(C)C)c1C` (stereo not shown) [CBK307402] it was 103%; in that of `CC1(C)Cc2c(cnn2-c2ccc(F)cc2)C(NS(C)(=O)=O)C1` (stereo not shown) [CBK307403], 92.3%; in that of `CC(C)Cn1cncc1CNC(=O)Nc1ccc2c(cnn2C)c1` [CBK307405], 93.8%. In the case of `COCCN(Cc1cnn(C)c1)C(=O)Cc1ccc(Cl)cc1` [CBK307407] it was 97%. Turning to `COC(=O)c1cccc(OCC(O)Cn2ccnc2)c1` (stereo not shown) [CBK307408], the viability at 28.5 h, 10 µM was found to be 102%.

Consider `COCCNc1nc2c(c(N3CCCC(C#N)C3)n1)CCNCC2` (stereo not shown) [CBK307412], for which the viability at 28.5 h, 10 µM stood at 87.2%. In the case of `CCc1c(C)sc(NC(=O)C2CCC2)c1C(=O)NCc1cccnc1` [CBK307414] it was 115%. In the case of `Cn1c(CN2CCCC2)nc2cc(NC(=O)C3CCCCC3)ccc21` [CBK307418], the viability at 28.5 h, 10 µM came out at 98.6%. On to `CN(C)CC(=O)Nc1cc(C(F)(F)F)ccc1Cl` [CBK307420], for which the viability at 28.5 h, 10 µM worked out at 87.2%. The result for `COc1nc2ccn(CCN3C(=O)CCC3=O)c(=O)c2cc1C#N` [CBK307422] reads 94.7%. The result for `Nc1cc(=O)[nH]c(SCC(=O)N2CCc3ccccc32)n1` [CBK307424] reads 94.4%; that for `CCCN1CCCC(NS(=O)(=O)c2cc(-n3cccn3)ccc2OC)C1` (stereo not shown) [CBK307426], 91.8%. The result for `COCCn1cnnc1C(C)NC(=O)N(C)Cc1nc2ccccc2s1` (stereo not shown) [CBK307427] reads 88.2%; that for `Cc1nc(NCCN2CCCC(CO)C2)nc2c1CCCC2` (stereo not shown) [CBK307430], 82%; that for `CN1CCC(O)(Cn2cnc3cc(-c4ccc(F)cc4)sc3c2=O)CC1` [CBK307434], 101%.

On to `COCCN(Cc1cnn(C)c1)C(=O)Cc1coc2cc(C)c(Cl)cc12` [CBK307435], for which the viability at 28.5 h, 10 µM stood at 108%. The result for `O=C(O)[C@H]1CCCN1Cc1cc(Cl)ccc1OCCCn1ccnc1` [CBK307436] reads 109%; that for `CC(O)c1cc2n(n1)CCN(C(=O)c1csc(Cc3ccccc3)n1)C2` (stereo not shown) [CBK307437], 98.1%.

In the case of `CCNC(=O)C1CCN(Cc2c[nH]nc2-c2ccc(F)cc2)C1` (stereo not shown) [CBK307438], the viability at 28.5 h, 10 µM is 90%. In the case of `CCCN(Cc1nccn1C)C(=O)Cn1nc(C)c2ccccc2c1=O` [CBK307441] it was 95.4%; in that of `CCCC(NC(=O)Nc1ccnn1CC(C)C)c1nccn1C` (stereo not shown) [CBK307444], 92.7%; in that of `Cc1nc(N)nc(NCCC2CCCN(C)C2)c1Cl` (stereo not shown) [CBK307445], 88.6%. The result for `Cn1c(N2CC[C@H](O)C2)nc2cc(C(=O)NCCC3CCCC3)ccc21` [CBK307447] reads 87.9%; that for `CC(C)c1nccn1CCCNC(=O)N1CCCC(c2ccncn2)C1` (stereo not shown) [CBK307448], 88.7%; that for `CSc1ncc(CNC(=O)CC2CCc3ccccc32)n1C` (stereo not shown) [CBK307450], 85.9%. Turning to `CCc1ccc(NC(=O)N2CCCCC2CCn2ccnc2)cc1` (stereo not shown) [CBK307453], the viability at 28.5 h, 10 µM was determined as 110%. For the compound `COc1ccc(C(=O)N2CCN(c3nc4c(s3)c(C)nn4C)CC2)cc1` [CBK307457], the viability at 28.5 h, 10 µM came to 96%. In the case of `CCN1CC2(CCC1=O)CCN(Cc1nncn1C(C)C)CC2` [CBK307460] it was 107%. The result for `NCCn1cc(C(=O)N2Cc3cnn(Cc4ccc(F)cc4)c3C2)nn1` [CBK307461] reads 107%; that for `CCNC(=O)C1CCN(C(=O)c2coc(COc3cccc(F)c3)n2)C1` (stereo not shown) [CBK307466], 86.3%. With `Cc1cc(C(F)(F)F)nc(CCNC(=O)N(Cc2ccsc2)C2CC2)n1` [CBK307468], the viability at 28.5 h, 10 µM was 107%. The result for `Cc1nc(C(=O)NC2CC(=O)N(CCc3ccc(F)cc3)C2)cs1` (stereo not shown) [CBK307473] reads 100%; that for `Cc1nc(C(=O)N2CCn3nc(C(O)c4ccccc4)cc3C2)c(C)s1` (stereo not shown) [CBK307474], 92.5%; that for `CN1CCN(C)C(CNC(=O)c2ccc(-c3ccccc3CO)cc2)C1` (stereo not shown) [CBK307475], 84.2%. Take `COc1cccc(CN2CCCC(NC(=O)c3cnn(C(C)C)c3)C2)c1` (stereo not shown) [CBK307477]: the viability at 28.5 h, 10 µM was 91.3%. The result for `CN(Cc1nccs1)C(=O)c1cccc(OCC(=O)N2CCCCC2)c1` [CBK307478] reads 108%; that for `Cn1c(N2CC[C@H](O)C2)nc2cc(C(=O)NCCn3cccc3)ccc21` [CBK307480], 83.6%; that for `CSc1nnc(CC2CCN(C(=O)c3cc(C)on3)CC2)n1C` [CBK307481], 108%. Take `Cc1cc(=O)n(CC(=O)N2CCC3(CCCN(C(C)C)C3=O)C2)nc1C` (stereo not shown) [CBK307482]: the viability at 28.5 h, 10 µM worked out at 90%. The result for `CCC(Cn1ccnc1)NS(=O)(=O)c1cc(-n2cccn2)ccc1OC` (stereo not shown) [CBK307483] reads 87.8%; that for `CCCCn1nccc1NC(=O)NC(C)c1n[nH]c(C)n1` (stereo not shown) [CBK307486], 99.4%; that for `CCc1c(-c2cccc(C(=O)N3CCS(=O)(=O)CC3)c2)cnn1C` [CBK307487], 75.3%. In the case of `c1cnn(CC2CCCN2c2ncnc3sc4c(c23)CCNC4)c1` (stereo not shown) [CBK307490] it was 85.9%; in that of `OC1(CN2CCCC2)CCN(Cc2sccc2Cl)CC1` [CBK307491], 105%. In the case of `COCCc1noc(C(C)NC(=O)Cc2cccc(O)c2)n1` (stereo not shown) [CBK307493] it was 99.5%.

Take `CCCCC(c1cccnc1)N(C)C(=O)c1cccn(C)c1=O` (stereo not shown) [CBK307496]: the viability at 28.5 h, 10 µM is 114%. The result for `Cc1nn2cc(CNC(=O)C3Cc4ccccc4O3)nc2s1` (stereo not shown) [CBK307498] reads 73.4%; that for `CCc1c(C(=O)N(C)Cc2cnn(C(C)C)c2)[nH]c2ccccc12` [CBK307501], 92.9%; that for `CCCS(=O)(=O)N1CCCC(Cc2ccccc2C)(C(=O)OCC)C1` (stereo not shown) [CBK307502], 84.9%. The result for `CCC(NC(=O)c1cc(CC(C)C)nn1CC)c1cn2cccnc2n1` (stereo not shown) [CBK307505] reads 101%; that for `OCCn1nc(C2CCCC2)nc1CCc1c[nH]c2ccccc12` [CBK307509], 85.1%; that for `CCOCc1nc2c(c(NCc3cc(C)on3)n1)CCN(C(C)=O)CC2` [CBK307512], 87.4%.

`Cc1csc2c(N3CCC(NCCc4ccnn4C)CC3)ncnc12` [CBK307515]: the viability at 28.5 h, 10 µM was found to be 89.8%. In the case of `CCOC(=O)C1(Cc2ccc(F)cc2F)CCCN(C(C)=O)C1` (stereo not shown) [CBK307516] it was 106%.

On to `CN1CCN(CC2(CNC(=O)c3ccc(C(=O)O)cc3)CC2)CC1` [CBK307517], for which the viability at 28.5 h, 10 µM came out at 102%. The result for `Cc1ccn2cc(CNC(=O)CN3CCOc4ccccc4C3)nc2c1` [CBK307518] reads 84.6%; that for `COCCc1nc(Cc2ccc(OC)cc2)nn1CC1COCCO1` (stereo not shown) [CBK307521], 89.7%; that for `CCC(O)Cn1nc(CCSC)nc1-c1ccc2[nH]ccc2c1` (stereo not shown) [CBK307526], 104%. In the case of `COc1ccc(C(NC(=O)Cn2cccnc2=O)C2CC(O)C2)cn1` (stereo not shown) [CBK307527] it was 83.4%; in that of `CCc1ccc(CN2CCC(Oc3ccccc3F)(C(=O)O)CC2)nc1` [CBK307528], 93.1%; in that of `Cc1nnc(SCCCNC(=O)C2CC(=O)N(Cc3ccccn3)C2)s1` (stereo not shown) [CBK307529], 101%. In the case of `CCOc1ccc(-c2ccnc(NCC(C)(C)CO)n2)cc1C(=O)O` [CBK307530] it was 88.6%. Consider `CCCS(=O)(=O)NC1CC(C)(C)Cc2c1cnn2-c1ccc(C)cc1` (stereo not shown) [CBK307531], for which the viability at 28.5 h, 10 µM was determined as 86.5%. The result for `Cc1ccc(OCc2occc2C(=O)N2CCCC3(CCOC3)C2)cc1` (stereo not shown) [CBK307532] reads 89.4%.

In general, viability refers to a read-out of living cells in per cent, often relative to untreated cells.
